This note sets out measurements from publication PMC12677607, “Identification of a Pair of Linear or Cyclic Naturally Inspired Bifunctional Lipopeptide Antibiotics That Overcome Antimicrobial Resistance” (Advanced Science, 2025).

Assay [1] deals with S. aureus USA300 MprFT345A. Kind of assay: MIC against daptomycin-resistant mutant. In kind it is cell-based. As to the method:
(§1) All MIC assays were performed two independent times (n = 2) in 96‐well plates using a broth micro‐dilution method. The lowest concentration of that inhibited visible microbial growth was recorded as the MIC value.
(§2) For most of bacterial strains, overnight cultures were diluted 5000‐fold in LB broth. For E. faecium and S. aureus, overnight cultures were diluted 1000‐ and 10000‐fold in LB broth, respectively. 100 µL of diluted cells was mixed with 100 µL of LB broth containing each peptide ranging from 64 to 0.125 µg mL^−1 at 2‐fold serial dilutions.
(§3) Overnight cultures S. aureus USA300 were diluted 10000‐fold in LB broth, and 100 µL of dilute cell suspension was added to 96‐well plates containing 100 µL serially diluted aquicidine C4, telomycin, and daptomycin (with 15 mM CaCl2). Overnight cultures K. pneumoniae CRKP5452 were diluted 5000‐fold in LB broth, and 100 µL of dilute cell suspension was added to 96‐well plates containing 100 µL serially diluted aquicidine L and colistin. After an incubation of 24 h at 37 °C, the MIC value was determined. […] The MIC value was recorded as described above, and the process was repeated daily for 21 days. Experiments were performed two independent times (n = 2).
(§4) Single‐nucleotide polymorphisms (SNPs) for telomycin‐, daptomycin‐ or colistin‐resistant mutants were identified using SNIPPY by mapping DNBSEQ‐seq reads to the reference genome of S. aureus USA300 or K. pneumoniae CRKP5452.

In assay [2] the test system is vancomycin-resistant E. faecium 35682. Kind of assay: Mouse peritonitis-sepsis model. In kind it is in vivo. Particulars: E. faecium 35682, ICR mice, single s.c. dose 1 h after infection, doses 50, 100, 150 mg kg^−1, n = 5. Here is the method:
(§5) Six‐week‐old female ICR mice were used in all experiments and housed in a temperature‐controlled room (25 °C) with 12‐h light/dark cycle and 30% relative humidity. Mice were observed twice daily for mortality and morbidity. Abnormal clinical signs were recorded if observed and totally monitored for five days. The detailed methods for the mouse peritonitis‐sepsis model were as follows.
Vancomycin‐resistant E. faecium 35682 was cultured in BHI broth at 37 °C fro 16 h and diluted with 5% type II porcine stomach mucin and 0.9% NaCl. E. faecium cell cultures were diluted to provide a challenge inoculum of 4.0 × 10^9 CFU in 0.5 mL and then administered into each mouse via intraperitoneal injection. 25 mice were randomly grouped into five per cohort (n = 5) and each cohort was given a single dose of either vehicle (20% solutol), aquicidine C4 at 50, 100 or 150 mg/kg and daptomycin at 100 mg kg^−1 with 15 mM CaCl2 1 h after infection via subcutaneous injection.

The test system of assay [3] is methicillin-resistant S. aureus USA300. Kind of assay: Mouse peritonitis-sepsis model. In kind it is in vivo. Particulars: S. aureus USA300, ICR mice, single s.c. dose 1 h after infection, doses 50, 100, 150 mg kg^−1, n = 5. As to the method: as §5
Methicillin‐resistant S. aureus USA300 was cultured in LB broth at 37 °C for 16 h and diluted with 7% type II porcine stomach mucin with 0.2 mM FeNH4‐citrate. S. aureus cell cultures were diluted to provide a challenge inoculum of 2.5 × 10^8 CFU in 0.5 mL and then administered into each mouse via intraperitoneal injection. 25 mice were randomly grouped into five per cohort (n = 5) and each cohort was given a single dose of either vehicle (20% solutol), aquicidine C4 at 50, 100, or 150 mg kg^−1, and vancomycin at 50 mg kg^−1 1 hr after infection via subcutaneous injection.

The subject of assay [4] is S. aureus USA300 Cls2A338stop. Briefly: MIC against telomycin-resistant mutant. In kind it is cell-based. As to the method: as §1, §2, §3, §4
The subject of assay [5] is methicillin-resistant S. aureus USA300. Kind of assay: Neutropenic thigh infection model. In kind it is in vivo, mouse. The note with it: 50 mg kg^−1 s.c. at 2, 10, 18 h, burden at 24 h, n = 8 thighs. As to the method:
(§6) Six‐week‐old female ICR mice were used in all experiments and housed in a temperature‐controlled room (25 °C) with 12‐h light/dark cycle and 30% relative humidity. Meropenem‐resistant A. baumannii 1104008 or methicillin‐resistant S. aureus USA300 was cultured in the MH broth containing 50 µg mL^−1 of gentamycin and the MH broth, respectively, at 37 °C and 200 rpm overnight. Then, the strains A. baumannii 1104008 or S. aureus USA300 were washed twice in 0.9% saline and further diluted to verify the bacterial suspension with a challenge inoculum of ≈1.0 × 10^6 CFU in a volume of 0.05 mL per mouse thigh. Mice were rendered neutropenic by receiving 150 and 100 mg kg^−1 of cyclophosphamide via intraperitoneal injection on day‐4 and day‐1 before infection, respectively. For treating the thigh infection caused by A. baumannii 1104008, mice were given 100 µL of vehicle (20% solutol), colistin (25 mg kg^−1, 20% solutol), or aquicidine L (25 mg kg^−1, 20% solutol) at 2, 8, 14, and 20 h after post‐infection via subcutaneous injection. […] All mice were observed after infection for morbidity, and any abnormal signs were recorded. […] The treatment efficacies of aquicidine L or C4 were determined as the bacterial burden reduction in the thighs relative to both the vehicle and colistin‐ or vancomycin‐treated controls. All graphic data were analyzed using the GraphPad Prism software (Prism10).

Another assay concerns K. pneumoniae 15580. Briefly: MIC against colistin-resistant strain. In kind it is cell-based. Particulars: Figure S127a. Here is the method: as §1, §2
Assay [6] concerns meropenem-resistant A. baumannii 1104008. Kind of assay: Neutropenic thigh infection model. The note with it: A. baumannii 1104008 thigh, 25 mg kg^−1 s.c. at 2, 8, 14, 20 h, burden at 24 h, n = 8 thighs. In kind it is in vivo, mouse. As to the method: as §6
A further assay relates to Shigella Castellani LXX. Briefly: MIC assay (broth micro-dilution). In kind it is cell-based. Particulars: Table S11; LB broth, 37 °C, 16 h, n = 2. A digest of the protocol:
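Broth micro-dilution in LB; overnight cultures diluted 5000-fold, mixed 1:1 with 2-fold peptide series from 64 to 0.125 µg mL^−1. MIC taken as lowest concentration with no visible growth; n = 2 independent runs.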

Structures are written as SMILES. Converted amounts (≈) assume the structure as drawn. Bridge positions count the residues as written; N and C are the ends. Square brackets hold non-standard residues; d marks the D form. Peptide text beside a SMILES is read from it. * marks the point of attachment. Myristoyl = CCCCCCCCCCCCCC(=O)*; Orn = NCCC[C@H](N)C(=O)O; Dab = NCC[C@H](N)C(=O)O; Dap = NC[C@H](N)C(=O)O

In the case of `CCCCCCCCCCCCCC(=O)N[C@@H](CN)C(=O)N[C@H](C(=O)N[C@@H](CC(C)C)C(=O)N[C@H]1COC(=O)[C@H](Cc2ccccc2)NC(=O)[C@H](CC(N)=O)NC(=O)[C@H](CCCN)NC(=O)[C@H]([C@@H](C)CC)NC(=O)[C@H](Cc2ccccc2)NC(=O)[C@H](CN)NC(=O)[C@H](CCN)NC1=O)[C@@H](C)O` [synAQU5-C4] (Myristoyl-[Dap]TLS[Dab][Dap]FI[Orn]NF; ester 4-C), the “antibacterial activity (MIC) S. aureus USA300 MprFT345A” value in assay [1] (Figure S127b, daptomycin-resistant mutant) was 16 µg/mL. Further, the “increase in MIC against resistant mutant compared to wild type” value in assay [1] (S. aureus USA300 MprF^T345A vs wild type) and in assay [4] (S. aureus USA300 Cls2^A338stop vs wild type) was 4 fold each time. For the same molecule, the “minimal dose required for 100% survival” value in assay [2] and in assay [3] was 100 mg/kg in each case. For the same molecule, the “antibacterial activity (MIC) S. aureus USA300 Cls2A338stop” value in assay [4] (Figure S127b, telomycin-resistant mutant) was 16 µg/mL. Besides, in assay [5], the “reduction in CFUs compared with the vehicle” value is 3 log10.

Turning to `CCCCCCCCCCCCCC(=O)N[C@@H](CN)C(=O)N[C@H](C(=O)N[C@@H](CC(C)C)C(=O)N[C@@H](CO)C(=O)N[C@@H](CCN)C(=O)N[C@@H](CN)C(=O)N[C@@H](Cc1ccccc1)C(=O)N[C@H](C(=O)N[C@@H](CCCN)C(=O)N[C@@H](CC(N)=O)C(=O)N[C@@H](Cc1ccccc1)C(=O)O)[C@@H](C)CC)[C@@H](C)O` [synAQU5-L] (Myristoyl-[Dap]TLS[Dab][Dap]FI[Orn]NF-OH), the “antibacterial activity (MIC) K. pneumoniae 15580” value with K. pneumoniae 15580 was found to be 8 µg/mL. The “reduction in CFUs compared with the vehicle” value in assay [6] stood at 3 log10. Moreover, in the assay with Shigella Castellani LXX, the “MIC Shigella Castellani LXX” value was determined as 8 µg/mL (≈ 5.56 µM).
